Data taken from patent publication US20250327028A1, “ENGINEERED PLATELETS AS TARGETED PROTEIN DEGRADERS” (Wisconsin Alumni Research Foundation, priority 2024, published 2025).

How the values were obtained:
HSP90 [1] = experiment: HSP90 expression in cancer cells after iHAC treatment; type: cell-based; details: all the cancer cells, various concentrations
From the text: Immunoblot analysis: Immunoblot analysis was used to evaluate the expression of BRD4, HSP90, HSP90a, and PD-L1 in 4T1, WT MDA-MB-231, HSP90α-KO MDA-MB-231 or PEA-10 cells after various treatments and also served as the detection method for IP or co-IP experiments. The procedures for preparing IP or co-IP samples were indicated in the relevant experimental parts.
Sample preparation for various cancer cells after free HAC treatment: Various cells, including 4T1, WT MDA-MB-231, HSP90α-KO MDA-MB-231, or PEA-10 cells, were seeded in 6-well culture plates with a density of 5×10^4 cells in each well and cultured for 24 h. Then, if HAI pretreatment was performed, the cells were incubated in the HAI-containing blank medium at different concentrations for 2 h and washed with PBS twice before the following treatments. […]
General procedures for immunoblot analysis: After a 30-min lysis, the lysates were centrifuged at 10,000 g for 10 minutes at 4° C., and the corresponding supernatants were collected, followed by quantification of the total proteins in the supernatant through the BCA assay. […] Finally, the bands were treated with electrochemiluminescence (ECL) western blot substrate, detected by the iBright™ imaging system and quantified with ImageJ software. […]

HSP90 [2] = experiment: Streptavidin-bead immunoprecipitation of biotin-labeled HSP90 in platelets treated with HAC-B; type: cell-based, BALB/c mice
Method: The immunoprecipitation assays based on the streptavidin-biotin system were used to evaluate the engineering efficiency of HAC-B on platelets. The fresh platelets were isolated from the whole blood of BALB/c mice as described above. PBS containing PGE1 ([…]) was adopted to dilute the platelets to a final concentration of 1×10^8 platelets/mL, and a total amount of 2×10^8 platelets (2 mL) was assigned for each sample in one tube. The HAC-B stock solution in DMSO was added to each tube at a final concentration of 2.5, 5, or 10 μM, and then the samples were placed in an orbital shaker with a speed of 50 rpm and incubated for 2 h at room temperature (blank DMSO serve as 0 μM). Meanwhile, other tubes containing the same platelet suspensions were added with HAC-B stock solution at a final concentration of 10 μM, which were shaken at the same conditions for 0.5, 1, 2, 3, or 4 h (the platelet suspension that was centrifugated immediately after HAC-B addition serves as the 0 h group). […] The total proteins in the supernatants were quantified through the BCA assay, and 10 μL of lysate supernatants were saved as the input samples. […]

HSP90 [3] = experiment: Quantification of biotin-labeled contents in platelets (biotin quantitation kit); type: cell-based, BALB/c mice; details: 2 h
Method: The fresh platelets were incubated with HAC-B at 2.5, 5, 10, 20, and 40 μM for 2 h, and the corresponding lysates were collected using the IP lysis buffer containing PMSF and phosphatase inhibitor cocktail. The biotin-labeled contents in each lysate supernatant were quantified by the QuantTag™ biotin quantitation kit, and the relevant engineering efficiency was calculated based on dividing the amount of biotin-labeled contents by the HAC-B amount added.

`Cc1sc2c(c1C)C(c1ccc(Cl)cc1)=N[C@@H](CC(=O)NCc1cn(CCCC(=O)N(CC#N)S(=O)(=O)c3ccc(C(=O)NCCCn4c(Sc5cc6c(cc5I)OCO6)nc5c(N)ncnc54)cc3)nn1)c1nnc(C)n1-2` [iHAC, (S)—N-(3-(6-amino-8-((6-iodobenzo[d][1,3]dioxol-5-yl)thio)-9H-purin-9-yl)propyl)-4-(N-(4-(4-((2-(4-(4-chlorophenyl)-2,3,9-trimethyl-6H-thieno[3,2-f][1,2,4]triazolo[4,3-a][1,4]diazepin-6-yl)acetamido)methyl)-1H-1,2,3-triazol-1-yl)butanoyl)-N-(cyanomethyl)sulfamoyl)benzamide] was tested, and the HSP90 expression (HSP90 [1]) was “maintained a relatively stable HSP90 expression”.

`N#CCN(C(=O)CCCC[C@@H]1SC[C@@H]2NC(=O)N[C@@H]21)S(=O)(=O)c1ccc(C(=O)NCCCn2c(Sc3cc4c(cc3I)OCO4)nc3c(N)ncnc32)cc1` [HAC-B, N-(3-(6-amino-8-((6-iodobenzo[d][1,3]dioxol-5-yl)thio)-9H-purin-9-yl)propyl)-4-(N-(cyanomethyl)-N-(5-((3aS,4S,6aR)-2-oxohexahydro-1H-thieno[3,4-d]imidazol-4-yl)pentanoyl)sulfamoyl)benzamide] was tested, and the “concentration dependence of HSP90 tethering in platelets” value (HSP90 [2]; 2 h) was “in a concentration-dependent manner”, the “incubation time at which biotin labeling of HSP90 in platelets approaches a maximum” value (HSP90 [2]; HAC-B 10 μM) was ~2 h and the “HAC-B concentration at which biotin-labeled content inside platelets reaches a peak” value (HSP90 [3]) was 20 µM.
